Reference: ChEMBL document CHEMBL4017441, “Mitigating the inhibition of human bile salt export pump by drugs: opportunities provided by physicochemical property modulation, in silico modeling, and structural modification” (Drug Metab Dispos, 2012)
Structures can show the parent of a compound that is named as a salt.

The compounds below were run against Bile salt export pump (Homo sapiens, UniProt O95342).
Type: ADME

First: O=C1CC[C@@]2(O)[C@H]3Cc4ccc(O)c5c4[C@@]2(CCN3CC2CC2)[C@H]1O5 [NALTREXONE]
Second: CC(CCC(=O)O)C1CCC2C3C(=O)CC4CC(=O)CCC4(C)C3CC(=O)C12C (stereo unspecified)
The IC50 of the first is higher: greater than 1000 µM for the first, 202 µM for the second. The second is the more potent here.

First: C=C[C@H]1C[N@@]2CC[C@H]1C[C@H]2[C@H](O)c1ccnc2ccc(OC)cc12 [QUININE]
Second: COC(=O)[C@H]1[C@H]2C[C@@H]3c4[nH]c5cc(OC)ccc5c4CCN3C[C@H]2C[C@@H](OC(=O)c2cc(OC)c(OC)c(OC)c2)[C@@H]1OC [RESERPINE]
The IC50 of the first is higher: 98.8 µM for the first, less than 10 µM for the second. The second is the more potent here.

`Cc1nnc(NS(=O)(=O)c2ccc(N)cc2)s1` [SULFAMETHIZOLE] and `Nc1ccc(C(=O)NCC(=O)O)cc1` [AMINOHIPPURIC ACID] cannot be ordered by IC50: greater than 1000 µM for the first, greater than 1000 µM for the second.

Going from `CO[C@H]1/C=C/O[C@@]2(C)Oc3c(C)c(O)c4c(c3C2=O)C2=NC3(CCN(CC(C)C)CC3)NC2=C(NC(=O)/C(C)=C\C=C\[C@H](C)[C@H](O)[C@@H](C)[C@@H](O)[C@H](C)[C@H](OC(C)=O)[C@H]1C)C4=O` to `C[C@]12CCC(=O)C=C1CC[C@@H]1[C@@H]2C(=O)C[C@@]2(C)[C@H]1CC[C@]2(O)C(=O)CO` [CORTISONE], the IC50 rises from less than 10 µM to 108 µM. The first is the more potent here.

Compared with `CN(C)CC/C=C1/c2ccccc2Sc2ccc(Cl)cc21` [CHLORPROTHIXENE], `Cc1ccccc1C(OCCN(C)C)c1ccccc1` (stereo unspecified) [ORPHENADRINE] is higher in IC50: 27.5 µM for the first, greater than 1000 µM for the second.

`C[n+]1ccccc1/C=N/O` [PRALIDOXIME] and `CCCc1ncc(C[n+]2ccccc2C)c(N)n1` [AMPROLIUM ION] cannot be ordered by IC50: greater than 1000 µM for the first, greater than 1000 µM for the second.

Going from `O=c1oc2ccccc2c(O)c1Cc1c(O)c2ccccc2oc1=O` [DICUMAROL] to `CC(=O)CC(c1ccccc1)c1c(O)c2ccccc2oc1=O` (stereo unspecified) [WARFARIN], the IC50 rises from 39.9 µM to 115 µM (2.9-fold).

First: N=C(N)NCCN1CCCCCCC1 [GUANETHIDINE]
Second: CCCN1CCCC[C@H]1C(=O)Nc1c(C)cccc1C [ROPIVACAINE]
The IC50 of the first is higher: greater than 1000 µM for the first, 646 µM for the second. The second is the more potent here.

`CCN1CCN(c2cc3c(cc2F)c(=O)c(C(=O)O)cn3C2CC2)CC1` [ENROFLOXACIN] and `CO/N=C1\CN(c2nc3c(cc2F)c(=O)c(C(=O)O)cn3C2CC2)CC1CN` (stereo unspecified) [GEMIFLOXACIN] cannot be ordered by IC50: greater than 1000 µM for the first, greater than 1000 µM for the second.

Compared with `Cc1cccc(C)c1CNc1cc(C(=O)NCCO)cn2c(C)c(C)nc12` [LINAPRAZAN], `CN=C(N)NC(=O)Nc1c(C)cccc1C` [LIDAMIDINE] is higher in IC50: less than 10 µM for the first, greater than 1000 µM for the second. The first is the more potent here.

`CC(C[N+](C)(C)C)OC(N)=O` (stereo unspecified) [BETHANECHOL] and `CC(C)C(=O)N[C@@H](CS)C(=O)O` cannot be ordered by IC50: greater than 1000 µM for the first, greater than 1000 µM for the second.

Going from `C[C@@H]1C[C@H]2[C@@H]3C[C@H](F)C4=CC(=O)C=C[C@]4(C)[C@@]3(F)[C@@H](O)C[C@]2(C)[C@@]1(O)C(=O)CO` [FLUMETHASONE] to `C[C@H]1C[C@H]2[C@@H]3CCC4=CC(=O)C=C[C@]4(C)[C@@]3(Cl)[C@@H](O)C[C@]2(C)[C@@]1(O)C(=O)CO` [BECLOMETHASONE], the IC50 falls from 68.5 µM to 23.7 µM (2.9-fold).

First: CC(C)(CO)[C@@H](O)C(=O)NCCC(=O)O [PANTOTHENIC ACID]
Second: CC(C)(C)C(=O)Oc1ccc(S(=O)(=O)Nc2ccccc2C(=O)NCC(=O)O)cc1
The IC50 of the first is higher: greater than 1000 µM for the first, 142 µM for the second.

Compared with `CCC(=O)OC(OP(=O)(CCCCc1ccccc1)CC(=O)N1CC(C2CCCCC2)CC1C(=O)O)C(C)C` (stereo unspecified), `CCOC(=O)[C@H](CCc1ccccc1)N[C@@H](C)C(=O)N1CC2(C[C@H]1C(=O)O)SCCS2` [SPIRAPRIL HYDROCHLORIDE] is higher in IC50: less than 13.3 µM for the first, 47.1 µM for the second.

`O=CN(O)C(CCc1ccccc1)CS(=O)(=O)N1CCN(c2ccc(F)cc2)CC1` (stereo unspecified) and `O=CN(O)C(CCCc1ncccn1)CS(=O)(=O)N1CCC(Oc2ccc(Cl)cn2)CC1` (stereo unspecified) cannot be ordered by IC50: less than 10 µM for the first, less than 10 µM for the second.

Going from `CC(N/C(=N\C#N)Nc1ccncc1)C(C)(C)C` (stereo unspecified) [PINACIDIL ANHYDROUS] to `Nc1cc(-c2ccncc2)c[nH]c1=O` [INAMRINONE], the IC50 rises from 161 µM to 371 µM (2.3-fold).

First: O=NN(CCCl)C(=O)NCCCl [CARMUSTINE]
Second: CCCOc1ccc2nc(NC(=O)OC)[nH]c2c1 [OXIBENDAZOLE]
The IC50 of the first is lower: 97.2 µM for the first, greater than 1000 µM for the second. The first is the more potent here.

Compared with `Fc1ccc(C(c2ccc(F)cc2)N2CCN(C/C=C/c3ccccc3)CC2)cc1` [FLUNARIZINE], `CN1CCN(CC(=O)N2c3ccccc3C(=O)Nc3cccnc32)CC1` [PIRENZEPINE] is higher in IC50: less than 10 µM for the first, greater than 1000 µM for the second. The first is the more potent here.

First: Oc1ccc(C2CNCCc3c2cc(O)c(O)c3Cl)cc1 (stereo unspecified) [FENOLDOPAM]
Second: CC(=O)NC[C@H]1CN(c2ccc(C(=O)c3cnc4ccc(Cl)cn34)cc2)C(=O)O1
The IC50 of the first is higher: greater than 1000 µM for the first, 27.6 µM for the second. The second is the more potent here.

First: O=C(O)c1cc2sccc2n1Cc1ccc(Cl)c(Cl)c1
Second: CNC(=O)c1cc(Oc2ccc(NC(=O)Nc3ccc(Cl)c(C(F)(F)F)c3)cc2)ccn1 [SORAFENIB]
The IC50 of the first is higher: 13.7 µM for the first, less than 10 µM for the second. The second is the more potent here.

Going from `COc1ccc(-c2cc(C(F)F)nn2-c2ccc(S(N)(=O)=O)cc2)cc1F` [DERACOXIB] to `COc1ccccc1OCC(O)COC(N)=O` (stereo unspecified) [METHOCARBAMOL], the IC50 rises from 20.2 µM to greater than 1000 µM.

First: CCCc1c(OCCCOc2ccc3c(=O)cc(CCC(=O)O)oc3c2CCC)ccc(C(C)=O)c1O
Second: CCCc1c2nc(C(=O)O)cc(C(F)(F)F)c2cc2c(=O)cc(C(=O)O)oc12
The IC50 of the first is lower: less than 10 µM for the first, 365 µM for the second. The first is the more potent here.

`Cc1cc2cc3c(C)cc(=O)oc3c(C)c2o1` [TRIOXSALEN] and `CCCn1c(=O)[nH]c(=O)c2[nH]cnc21` [ENPROFYLLINE] cannot be ordered by IC50: greater than 525 µM for the first, greater than 1000 µM for the second.
